Active and inactive are the calls of the source. No rule for the calls is given here.
Tested on: GENE-TOX genotoxicity assays, various organisms and cells
Assay: GENE-TOX mutagenicity studies
Conditions: for call: Assay Type: In vivo carcinogenicity studies
[1] = Species/Cell Type: Nonhuman, Assay Type: Sister-chromatid exchange (SCE) in vitro, Assay Code: SC2+D, Dose Response: With dose response, Evaluation Type: Evaluation B (Post-1980)
[2] = Species/Cell Type: Salmonella typhimurium (one or more of the five standard strains: TA98, TA100, TA1535, TA1537, and TA1538), Assay Type: Histidine reverse gene mutation, Ames assay, Assay Code: SAL+*, Activation: With metabolic activation, Evaluation Type: Evaluation A (Pre-1980)
[3] = Species/Cell Type: Fischer rat embryo (RLV/1706) cells, Assay Type: Cell transformation, viral enhanced, Assay Code: CTR+, Evaluation Type: Evaluation A (Pre-1980)
[4] = Species/Cell Type: Nonhuman, Assay Code: CCG+, Evaluation Type: Evaluation A (Pre-1980)
[5] = Species/Cell Type: Salmonella typhimurium (one or more of the five standard strains: TA98, TA100, TA1535, TA1537, and TA1538), Assay Type: Histidine reverse gene mutation, Ames assay, Assay Code: SALT, Evaluation Type: Evaluation A (Pre-1980)
[6] = Species/Cell Type: Salmonella typhimurium, Assay Type: Forward and reverse gene mutation, host-mediated assay, Assay Code: HMA+, Evaluation Type: Evaluation A (Pre-1980)
[7] = Species/Cell Type: Salmonella typhimurium (one or more of the five standard strains: TA98, TA100, TA1535, TA1537, and TA1538), Assay Type: Histidine reverse gene mutation, Ames assay, Assay Code: SAL+, Evaluation Type: Evaluation A (Pre-1980)
[8] = Species/Cell Type: Human diploid fibroblasts, Assay Type: Unscheduled DNA synthesis (UDS) in vitro, DNA effects, Assay Code: UDH-, Evaluation Type: Evaluation A (Pre-1980)
[9] = Species/Cell Type: Drosophila melanogaster, Assay Type: Sex-linked recessive lethal gene mutation, Assay Code: SRL+, Evaluation Type: Evaluation A (Pre-1980)
[10] = Species/Cell Type: Nonhuman, Assay Type: Sister-chromatid exchange (SCE) in vitro, Assay Code: SC2T, Evaluation Type: Evaluation B (Post-1980)

Cc1[nH]cnc1CSCCN=C(NC#N)N(C)N=O was tested, and the mutagenic call (Species/Cell Type: Human lymphocytes, Assay Type: Sister-chromatid exchange (SCE) in vitro, Assay Code: SCL+D, Dose Response: With dose response, Evaluation Type: Evaluation B (Post-1980)) was “active; positive”, the mutagenic call (Species/Cell Type: Human, Assay Type: Sister-chromatid exchange (SCE) in vitro, Assay Code: SC1+D, Dose Response: With dose response, Evaluation Type: Evaluation B (Post-1980)) was “active; positive” and the mutagenic call [1] was “active; positive”.

With Cc1cc(N=Nc2ccc(S(=O)(=O)O)cc2)c(N)cc1N the mutagenic call [2] was “active; positive”.

c1ccc2c(c1)ccc1nc3ccc4ccccc4c3cc12 was tested, and the mutagenic call [3] was “active; positive”, the call [4] was “active; positive” and the mutagenic call [2] was “active; positive”.

In the case of CCCN(CCC)C(=O)SCC, the mutagenic call (Species/Cell Type: Neurospora crassa, Assay Type: Aneuploidy, chromosome aberrations, Assay Code: NEN-, Evaluation Type: Evaluation A (Pre-1980)) is reported as “inactive; negative” and the mutagenic call (Species/Cell Type: Zea mays (corn), Assay Type: Gene mutation, Assay Code: ZEM-, Evaluation Type: Evaluation A (Pre-1980)) is reported as “inactive; negative”.

In the case of OC(CCl)CCl, the mutagenic call [2] is reported as “active; positive”.

For c1ccc2c(c1)-c1cccc3cccc-2c13, the mutagenic call (Species/Cell Type: Chinese hamster ovary (CHO) cells, Assay Type: Forward gene mutation at the HPRT locus, Assay Code: CHO+*, Activation: With metabolic activation, Evaluation Type: Evaluation B (Post-1980)) was “active; positive”, the mutagenic call (Species/Cell Type: Fischer rat embryo (RLV/1706) cells, Assay Type: Cell transformation, viral enhanced, Assay Code: CTRT, Evaluation Type: Evaluation A (Pre-1980)) was “no conclusion” and the mutagenic call [1] was “active; positive”. For the same compound, the mutagenic call (Species/Cell Type: Nonhuman, Assay Type: Sister-chromatid exchange (SCE) in vivo, Assay Code: SC3-, Evaluation Type: Evaluation B (Post-1980)) was “inactive; negative”.

For O=C(CCCCCCCCC(=O)N1CC1)N1CC1, the mutagenic call (Species/Cell Type: Hordeum vulgare (barley), Assay Type: Chromosome aberrations, Assay Code: HOC+, Evaluation Type: Evaluation A (Pre-1980)) was “active; positive” and the mutagenic call (Species/Cell Type: Vicia faba, Assay Type: Chromosome aberrations, Assay Code: VIC+D, Dose Response: With dose response, Evaluation Type: Evaluation A (Pre-1980)) was “active; positive”.

CCN(CC)C(=S)S was tested, and the call (Species/Cell Type: Nonhuman, Assay Code: CCG-, Evaluation Type: Evaluation A (Pre-1980)) was “inactive; negative” and the mutagenic call (Species/Cell Type: Vicia faba, Assay Type: Chromosome aberrations, Assay Code: VIC+, Evaluation Type: Evaluation A (Pre-1980)) was “active; positive”.

With CNc1ccc(Cl)cc1C(=O)c1ccccc1 the mutagenic call [5] was “no conclusion”.

In the case of O=C(CCN1CCCCC1)c1ccc2c(c1)OCO2, the mutagenic call [6] is reported as “active; positive”.

Cc1c2ccccc2c(C2CO2)c2ccccc12 (configuration not stated) was tested, and the mutagenic call [7] was “active; positive”.

In the case of C[C@H](CCC(=O)O)[C@H]1CC[C@H]2[C@@H]3CC[C@@H]4C[C@H](OS(=O)(=O)O)CC[C@]4(C)[C@H]3CC[C@]12C, the mutagenic call (Species/Cell Type: Syrian hamster embryo (SHE) cells, Assay Type: Cell transformation, clonal assay, Assay Code: CTC-, Evaluation Type: Evaluation A (Pre-1980)) is reported as “inactive; negative”.

For [Be], the call [4] was “active; positive”.

In the case of c1cc2ccc3cc4cccc5ccc6cc(c1)c2c3c6c54, the mutagenic call [2] is reported as “active; positive”.

For NC(=O)N/N=C/c1ccc([N+](=O)[O-])o1, the mutagenic call (Species/Cell Type: Bacillus subtilis (H17 vs M45), Assay Type: Rec-assay, spot test, DNA effects (bacterial DNA repair), Assay Code: REW+, Evaluation Type: Evaluation A (Pre-1980)) was “active; positive”, the mutagenic call (Species/Cell Type: Chinese hamster ovary (CHO) cells, Assay Type: Forward gene mutation at the HPRT locus, Assay Code: CHO-, Evaluation Type: Evaluation B (Post-1980)) was “inactive; negative” and the mutagenic call (Species/Cell Type: Escherichia coli WP2, Assay Type: Tryptophan reverse gene mutation, Assay Code: WP2T, Evaluation Type: Evaluation A (Pre-1980)) was “no conclusion”. The mutagenic call (Species/Cell Type: Escherichia coli WP2 UVRA, Assay Type: Tryptophan reverse gene mutation, Assay Code: WPU+D, Dose Response: With dose response, Evaluation Type: Evaluation A (Pre-1980)) was “active; positive”, the mutagenic call [3] was “active; positive” and the mutagenic call [8] was “inactive; negative”. The mutagenic call (Species/Cell Type: Mammalian polychromatic erythrocytes, Assay Type: Micronucleus test, chromosome aberrations, Assay Code: MNTT, Evaluation Type: Evaluation A (Pre-1980)) was “no conclusion”, the mutagenic call (Species/Cell Type: Mouse, Sex: Male, Assay Type: Sperm morphology, Assay Code: SPI-, Evaluation Type: Evaluation A (Pre-1980)) was “inactive; negative” and the mutagenic call (Species/Cell Type: Neurospora crassa, Assay Type: Forward gene mutation, Assay Code: NEF+, Evaluation Type: Evaluation A (Pre-1980)) was “active; positive”. For the same compound, the mutagenic call (Species/Cell Type: Neurospora crassa, Assay Type: Reverse gene mutation, Assay Code: NER+, Evaluation Type: Evaluation A (Pre-1980)) was “active; positive”, the mutagenic call (Species/Cell Type: Nonhuman bone marrow, Assay Type: Chromosome aberrations, in vivo, Assay Code: CY#-, Evaluation Type: Evaluation A (Pre-1980)) was “inactive; negative” and the call (Species/Cell Type: Nonhuman, Assay Code: CCG+L, Evaluation Type: Evaluation A (Pre-1980)) was “active; positive”. The mutagenic call [7] was “active; positive”.

COP(=O)(OC)OC was tested, and the mutagenic call [9] was “active; positive”, the mutagenic call (Species/Cell Type: Escherichia coli polA (W3119 vs P3478), Assay Type: Rec-assay, DNA effects (bacterial DNA repair), Assay Code: RE1T, Evaluation Type: Evaluation A (Pre-1980)) was “no conclusion” and the mutagenic call (Species/Cell Type: Human lymphocytes or leukocytes, Assay Type: Chromosome aberrations in vitro, Assay Code: CY7+D, Dose Response: With dose response, Evaluation Type: Evaluation A (Pre-1980)) was “active; positive”. The mutagenic call (Species/Cell Type: Mammalian polychromatic erythrocytes, Assay Type: Micronucleus test, chromosome aberrations, Assay Code: MNT+, Evaluation Type: Evaluation A (Pre-1980)) was “active; positive”, the mutagenic call (Species/Cell Type: Mouse, Sex: Male, Assay Type: Sperm morphology, Assay Code: SPI+, Evaluation Type: Evaluation A (Pre-1980)) was “active; positive” and the call [4] was “active; positive”. For the same compound, the mutagenic call (Species/Cell Type: Rodents, Sex: Male, Assay Type: Dominant lethal test, Assay Code: DLT+D, Dose Response: With dose response, Evaluation Type: Evaluation A (Pre-1980)) was “active; positive” and the mutagenic call (Species/Cell Type: Tradescantia species, Assay Type: Gene mutation, Assay Code: TRM+D, Dose Response: With dose response, Evaluation Type: Evaluation A (Pre-1980)) was “active; positive”.

COc1cc(/C=N/NC(=O)COc2ccc(Br)cc2CN(C)C)ccc1O was tested, and the mutagenic call (Species/Cell Type: Saccharomyces cerevisiae, Assay Type: Reverse gene mutation, Assay Code: YERT, Evaluation Type: Evaluation A (Pre-1980)) was “no conclusion”.

With O the mutagenic call (Species/Cell Type: Bacillus subtilis (H17 vs M45), Assay Type: Rec-assay, spot test, DNA effects (bacterial DNA repair), Assay Code: REWT, Evaluation Type: Evaluation A (Pre-1980)) was “no conclusion”, the mutagenic call [10] was “no conclusion” and the mutagenic call (Species/Cell Type: Syrian hamster embryo (SA7/SHE) cells, Assay Type: Cell transformation, viral enhanced, Assay Code: CT7-, Evaluation Type: Evaluation A (Pre-1980)) was “inactive; negative”.

For CCOC(=O)C1C(C=C(C)C)C1(C)C (configuration not stated), the mutagenic call [8] was “inactive; negative” and the mutagenic call (Species/Cell Type: Saccharomyces cerevisiae, Assay Type: Mitotic recombination or gene conversion, Assay Code: YEH+, Evaluation Type: Evaluation A (Pre-1980)) was “active; positive”.

For C/[N+]([O-])=N/CO[C@@H]1O[C@H](CO)[C@@H](O)[C@H](O)[C@H]1O, the mutagenic call (Species/Cell Type: Drosophila melanogaster, Assay Type: Sex-linked recessive lethal gene mutation, Assay Code: SRLT, Evaluation Type: Evaluation A (Pre-1980)) was “no conclusion”, the call [4] was “active; positive” and the mutagenic call (Species/Cell Type: Salmonella typhimurium (one or more of the five standard strains: TA98, TA100, TA1535, TA1537, and TA1538), Assay Type: Histidine reverse gene mutation, Ames assay, Assay Code: SAL-, Evaluation Type: Evaluation A (Pre-1980)) was “inactive; negative”. For the same compound, the mutagenic call [6] was “active; positive”.

For C=CC(O)c1ccc(OC)cc1 (configuration not stated), the mutagenic call [5] was “no conclusion”.

OOC1CCCc2ccccc21 (configuration not stated) was tested, and the mutagenic call (Species/Cell Type: Saccharomyces cerevisiae, Assay Type: Mitotic recombination or gene conversion, Assay Code: YEC-, Evaluation Type: Evaluation A (Pre-1980)) was “inactive; negative”.

For O=NN(CCO)CCCCO, the mutagenic call [2] was “active; positive”.

For COc1ccc2c3ccc(OC)cc3c3c4cc(OC)ccc4c4ccc(OC)cc4c3c2c1, the mutagenic call [2] was “active; positive”.

COc1ccc(N=NN(C)C)cc1 was tested, and the mutagenic call [9] was “active; positive” and the mutagenic call (Species/Cell Type: Saccharomyces cerevisiae, Assay Type: Mitotic recombination or gene conversion, Assay Code: YEC+, Evaluation Type: Evaluation A (Pre-1980)) was “active; positive”.

In the case of CCC(C)c1ccccc1OC(=O)N(C)N=O (configuration not stated), the mutagenic call (Species/Cell Type: Bacillus subtilis (H17 vs M45T), Assay Type: Rec-assay, spot test, DNA effects (bacterial DNA repair), Assay Code: REX+, Evaluation Type: Evaluation A (Pre-1980)) is reported as “active; positive” and the mutagenic call (Species/Cell Type: Escherichia coli WP2, Assay Type: Tryptophan reverse gene mutation, Assay Code: WP2+, Evaluation Type: Evaluation A (Pre-1980)) is reported as “active; positive”.

CCN(CC)CCOc1ccc2c(c1)C(=O)c1cc(OCCN(CC)CC)ccc1-2 was tested, and the mutagenic call (Species/Cell Type: Mouse (C3H/10T1/2) cells, Assay Type: Cell transformation, Assay Code: CTH-, Evaluation Type: Evaluation A (Pre-1980)) was “inactive; negative”, the mutagenic call (Species/Cell Type: Nonhuman, Assay Type: Sister-chromatid exchange (SCE) in vitro, Assay Code: SC2-, Evaluation Type: Evaluation A (Pre-1980)) was “inactive; negative” and the mutagenic call [10] was “no conclusion”. The mutagenic call [7] was “active; positive”.

— PubChem BioAssay AID1259408 (Genetic Toxicology Data Bank (GENE-TOX), 2018)
